Assays:
caspase 9 = assay: Caspase 9 ELISA in cell lysates; assay type: cell-based, human; conditions: HuTu 80 lysates, IC50/2 and IC50, compared with the control
Description: (§1) In vitro quantitative measurement of caspase-9 and caspase-8 was performed using ELISA kits (ELISA Kit for Caspase 9 and ELISA Kit for Caspase 8, Human Cloud-Clone Corp., Wuhan, China). The analysis was carried out according to the manufacturer’s instructions. Samples were standardized for total protein content (1 mg/mL). Protein concentration was determined with Coomassie-based assays using Bredford Dye Reagent (Bio-Rad, Hercules, CA, USA). The absorbance was measured using a microplate reader, EPOCH (BioTek Instruments, Inc., Winooski, VT, USA), at a wavelength of 450 ± 10 nm. Lysates of untreated HuTu 80 cells were used as controls.
(§2) To confirm that apoptosis induced by compounds 4b, 5b, 6a, and 8 proceeds along the internal (mitochondrial) pathway, studies were conducted to determine the enzymatic activity of the early apoptosis key markers—caspase 9 and caspase 8 using ELISA kits. The kits are sandwich enzyme immunoassays for in vitro quantitative measurement of Caspase 8 and Caspase 9 in cell lysates, rat tissue homogenates, and other biological fluids. Caspase 9 plays a key role in the mitochondrial signaling pathway of apoptosis induction. The activation of caspase 8 characterizes the external (receptor-dependent) pathway of apoptosis. HuTu 80 cells not treated with the tested compounds were used as a control.

caspase 8 = assay: Caspase 8 ELISA in cell lysates; assay type: cell-based, human; conditions: HuTu 80 lysates, relative to the control
Description: as §1, §2

| Structure (SMILES) | concentration of caspase 9 (in words) (caspase 9) | concentration of caspase 8 (in words) (caspase 8) |
| --- | --- | --- |
| CCCCCCCC[P+](c1ccccc1)(N(CC)CC)N(CC)CC [5b, Bis(diethylamino)(octyl)(phenyl)phosphonium iodide] | significantly increased | significantly decreased |
| CCCCCCCC[P+](N(CC)CC)(N(CC)CC)N(CC)CC [4b, Tris(diethylamino)(octyl)phosphonium iodide] | significantly increased | significantly decreased |
| CCCCCC[P+](c1ccccc1)(c1ccccc1)N(CC)CC [6a, (Diethylamino)(hexyl)diphenylphosphonium iodide] | significantly increased | – |
| CCCCCCCC[P+](c1ccccc1)(c1ccccc1)c1ccccc1 [compound 8, Octyltriphenylphosphonium iodide, reference compound] | significantly increased | – |

Reference: paper PMC10649961, “Novel Mitochondria-Targeted Amphiphilic Aminophosphonium Salts and Lipids Nanoparticles: Synthesis, Antitumor Activity and Toxicity” (Nanomaterials, 2023)
